Measured values reported in US4112076A, “Epi-daunomycin and epi-adriamycin compounds and method of use” (priority 1975, dated 1978).
≈ marks a conversion by molar mass, not a printed value. Like-named read-outs stand apart in the source and are kept apart here.

How the values were obtained:
[1] = system: mouse embryo fibroblast (MEF) cultures; assay: Proliferation of uninfected mouse embryo fibroblast (MEF) cultures (cytotoxic action); type: cell-based
Description: (§1) The test compound was evaluated on mouse embryo fibroblast (MEF) cultures infected with MSV and on similar uninfected cultures. After a treatment of three days the inhibiting doses (ID50) were evaluated on cell proliferation in uninfected cultures (cytotoxic action) and on MSV foci formation in infected cultures (antiviral action).
(§2) ^c inhibition of mouse embryo fibroblasts proliferation

[2] = as above; type: cell-based; conditions: mouse, mouse embryo fibroblasts; uninfected MEF, three days treatment; Table 2; read-out: Cytotoxic action ID50
Description: as §1, §2

[3] = system: Ascites lymphocitic P 388 Leukemia; assay: Ascites lymphocitic P 388 Leukemia in CDF1 mice, i.p. treatment days 1-9; type: in vivo, mouse (male CDF1); conditions: for Tumor evaluation, median survival time: control 12.1 days
[4] = system: Moloney Sarcoma Virus (MSV); assay: Formation of foci by Moloney Sarcoma Virus (MSV) in vitro (antiviral action); type: cell-based; conditions: Fibroblast, 72 h, read-out: Antiviral action ID50
Description: as §1
^b inhibition of MSV foci formation

Hela cells = assay: Cloning efficiency of Hela cells in vitro (colony inhibition); type: cell-based; conditions: Homo sapiens
Description: After treatment for 2, 8 and 24 hours, Hela cells were seeded (200 cells per plate) and the number of colonies determined 8 days later. The inhibiting dose (ID50) represents the does which produces a 50% inhibition of colonies.
^a cloning efficiency of Hela cells

## COc1cccc2c1C(=O)c1c(O)c3c(c(O)c1C2=O)C[C@@](O)(C(C)=O)C[C@@H]3O[C@H]1C[C@@H](N)[C@@H](O)[C@H](C)O1 [3'-4'-epi-daunomycin, 3',4'-epi-daunomycin]
[1]
  cytotoxic activity in vitro compared with daunomycin: less cytotoxic acitivity in vitro, when compared with daunomycin
[2]
  CC50 at 72 h: 0.09 µg/mL (≈ 0.171 µM)
[3]; 1.56 mg/kg i.p., days 1-9
  Toxicity (survivors at fifth day): 6/6
  Tumor evaluation, T/C %: 129%
  Tumor evaluation, median survival time: 15.7 days
[3]; 3.13 mg/kg i.p., days 1-9
  Toxicity (survivors at fifth day): 6/6
  Tumor evaluation, T/C %: 142%
[3]; 6.25 mg/kg i.p., days 1-9
  Toxicity (survivors at fifth day): 6/6
  Tumor evaluation, T/C %: 155%
[3]; 12.5 mg/kg i.p., days 1-9
  Toxicity (survivors at fifth day): 6/6
  Tumor evaluation, T/C %: 173%
  Tumor evaluation, median survival time: 21 days
[3]; 25 mg/kg i.p., days 1-9
  Toxicity (survivors at fifth day): 6/6
  Tumor evaluation, T/C %: 231%
  Tumor evaluation, median survival time: 28 days
[3]; 25 mg/kg i.p., days 1-9, evaluated day 20
  Cures: 1
[3]; Table 3
  anti-tumor activity in tumor bearing animals: distinct anti-tumor activity
[4]
  IC50: 0.045 µg/mL (≈ 0.0853 µM)
Hela cells; 2 h, read-out: ID50 (action on Hela cells), 2 hours treatment, Table 1
  IC50: 270 µg/mL (≈ 512 µM)
Hela cells; 8 h, read-out: ID50 (action on Hela cells), 8 hours treatment, Table 1
  IC50: 220 µg/mL (≈ 417 µM)
Hela cells; 24 h, read-out: ID50 (action on Hela cells), 24 hours treatment, Table 1
  IC50: 190 µg/mL (≈ 360 µM)
